# Results reported in patent publication US6462069B2, “Compounds, pharmaceutical compositions, and methods for inhibiting protein kinases” (Agouron Pharmaceuticals, Inc., priority 2000, dated 2002).
# pKi: −log10 of the molar value.
# Tests used:
# Format in all cases: biochemical
# CDK4/cyclin D3 complex = target: T1, CDK4/cyclin D3 complex (Homo sapiens, UniProt P11802); experiment: Inhibition of CDK4/Cyclin D retinoblastoma kinase activity; conditions: apparent Ki
# T1 construct: made in house; host or cells: insect cells co-infected with baculovirus expression vectors
# T1 sequence (P11802 whole entry): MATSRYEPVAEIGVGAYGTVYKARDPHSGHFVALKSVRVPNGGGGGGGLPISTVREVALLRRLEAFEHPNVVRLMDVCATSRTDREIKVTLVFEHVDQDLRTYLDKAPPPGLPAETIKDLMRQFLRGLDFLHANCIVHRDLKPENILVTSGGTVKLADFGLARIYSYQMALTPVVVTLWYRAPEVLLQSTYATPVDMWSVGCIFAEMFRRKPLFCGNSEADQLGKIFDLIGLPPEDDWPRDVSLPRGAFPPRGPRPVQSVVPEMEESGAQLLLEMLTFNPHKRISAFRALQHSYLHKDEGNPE
# T1 sequence (P30281 whole entry partner): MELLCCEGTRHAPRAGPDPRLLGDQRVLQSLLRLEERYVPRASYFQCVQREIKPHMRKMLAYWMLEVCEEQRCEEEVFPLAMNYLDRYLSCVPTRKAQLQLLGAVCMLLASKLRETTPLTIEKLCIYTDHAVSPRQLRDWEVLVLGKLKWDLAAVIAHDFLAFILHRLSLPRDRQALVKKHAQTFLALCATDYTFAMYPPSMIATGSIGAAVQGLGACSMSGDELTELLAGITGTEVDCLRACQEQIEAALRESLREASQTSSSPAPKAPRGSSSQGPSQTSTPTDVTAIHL
# Procedure: (§1) Cyclin-dependent kinase activity was measured by quantifying the enzyme-catalyzed, time-dependent incorporation of radioactive phosphate from [^32P]ATP or [^33P]ATP into a protein substrate. Unless noted otherwise, assays were performed in 96-well plates in a total volume of 50 μL, in the presence of 10 mM HEPES (N-[2-hydroxyethyl]piperazine-N′-[2-ethanesulfonic acid]) (pH 7.4). 10 mM MgCI2, 25 μM adenosine triphosphate (ATP), 1 mg/mL ovalbumin, 5 μg/mL leupeptin, 1 mM dithiothreitol, 10 mM beta-glycerophosphate, 0.1 mM sodium vanadate, 1 mM sodium fluoride, 2.5 mM ethylene glycol-bis(β-aminoethyl ethKer)-N,N,N′N′-tetraacetic acid (EGTA), 2% (v/v) dimethylsulfoxide, and 0.03-0.4 μCi [^32/33P]ATP per reaction. Reactions were initiated with enzyme, incubated at 30° C. and terminated after 20 minutes by the addition ofethylenediaminetetraacetic acid (EDTA) to 250 mM. The phosphorylated substrate was then captured on a nitrocellulose or phosphocellulose membrane using a 96-well filtration manifold, and unincorporated radioactivity was removed by repeated washing with 0.85% phosphoric acid. Radioactivity was quantified by exposing the dried membranes to a phosphorimager.
# (§2) Apparent Ki values were measured by assaying enzyme activity in the presence of different inhibitor compound concentrations and subtracting the background radioactivity measured in the absence of enzyme. Inhibition data were fit to an equation for competitive inhibition using Kaleidagraph (Synergy Software), or were fit to an equation for competitive tight-binding inhibition using the software KineTic (BioKin, Ltd.).
# A complex of human CDK4 and cyclin D3, or a complex of human CDK4 and genetically truncated (1-264) cyclin D3, was purified using traditional biochemical chromatographic techniques from insect cells that had been co-infected with the corresponding baculovirus expression vectors ((see e.g., Meijer and Kim, “Chemical Inhibitors of Cyclin-Dependent Kinases,” Methods in Enzymol,. vol. 283, pp. 113-128 (1997)). The enzyme complex (5 or 50 nM) was assayed with 0.3-0.5 μg of purified recombinant retinoblastoma protein fragment (Rb) as a substrate. The engineered Rb fragment (residues 386-928 of the native retinoblastoma protein; 62.3 kDa) contains the majority of the phosphorylation sites found in the native 106-kDa protein, as well as a tag of six histidine residues for ease of purification. Phosphorylated Rb substrate was captured by microfiltration on a nitrocellulose membrane and quantified using a phosphorimager as described above. For measurement of tight-binding inhibitors, the enzyme complex concentration was lowered to 5 nM, and the assay duration was extended to 60 minutes, during which the time-dependence of product formation was linear.
# [1] = target: T2, VEGF-R2 (VEGF-R2Δ50 construct) (Homo sapiens, UniProt P35968, DEL940-989/E990V); experiment: VEGF-R2 assay; conditions: read-out: Percent Inhibition VEGF
# T2 construct: VEGF-R2Δ50 contains residues 806-939 and 990-1171; made in house; host or cells: baculovirus/insect cell system
# T2 sequence (P35968 with tags, fused parts or gaps DEL940-989/E990V limits assumed): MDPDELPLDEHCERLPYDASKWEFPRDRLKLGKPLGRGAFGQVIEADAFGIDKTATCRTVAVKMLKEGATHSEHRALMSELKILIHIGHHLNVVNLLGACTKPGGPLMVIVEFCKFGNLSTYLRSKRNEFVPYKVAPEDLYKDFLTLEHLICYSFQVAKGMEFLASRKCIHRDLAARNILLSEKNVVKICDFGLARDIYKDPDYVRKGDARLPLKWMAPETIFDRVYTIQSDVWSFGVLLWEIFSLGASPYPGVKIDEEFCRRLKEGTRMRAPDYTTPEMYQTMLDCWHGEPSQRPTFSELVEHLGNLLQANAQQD
# Description: This construct determines the ability of a test compound to inhibit tyrosine kinase activity. A construct (VEGF-R2Δ50) of the cytosolic domain of human vascular endothelial growth factor receptor 2 (VEGF-R2) lacking the 50 central residues of the 68 residues of the kinase insert domain was expressed in a baculovirus/insect cell system. This construct is described by McTigue et al. in Structure, vol. 7, pp. 319-330 (1999) and co-pending U.S. patent application Ser. No. 09/390,326, filed Sep. 7, 1999. Of the 1356 residues of full-length VEGF-R2, VEGF-R2Δ50 contains residues 806-939 and 990-1171, and also one point mutation (E990V) within the kinase insert domain relative to wild-type VEGF-R2. […]
# The production of ADP from ATP that accompanies phosphoryl transfer was coupled to oxidation of NADH using phosphoenolpyruvate (PEP) and a system having pyruvate kinase (PK) and lactic dehydrogenase (LDH). The oxidation of NADH was monitored by following the decrease of absorbance at 340 nm (e340=6.22 cm^−1 mM^−1) using a Beckman DU 650 spectrophotometer. […] Ki values were determined by measuring enzyme activity in the presence of varying concentrations of test compounds. The data were analyzed using Enzyme Kinetic and Kaleidagraph software.
# Formation of phosphogastrin was monitored using biotinylated gastrin peptide (1-17) as substrate. […]
# CDK2/cyclin A complex = target: T3, CDK2/cyclin A complex (Homo sapiens, UniProt P24941); experiment: Inhibition of CDK2/Cyclin A retinoblastoma kinase activity; conditions: apparent Ki
# T3 construct: made in house; host or cells: CDK2: insect cells (baculovirus); cyclin A: E. coli
# Procedure: as §1, §2
# CDK2 was purified using published methodology (Rosenblatt et al., “Purification and Crystallization of Human Cyclin-dependent Kinase 2,” J. Mol. Biol., vol. 230, pp. 1317-1319 (1993)) from insect cells that had been infected with a baculovirus expression vector. […] Ki values were measured as described above.
SMILES,pKi (CDK4/cyclin D3 complex),inhibition at 5 µM [1] [%],pKi (CDK2/cyclin A complex)
c1ccc(Nc2cc(-c3csc4ccccc34)[nH]n2)cc1 [Compound B],5.51,21,5.21
"c1ccc(Nc2cc(-c3cccs3)[nH]n2)cc1 [Compound A, Phenyl-(5-thiophen-2-yl-1H-pyrazol-3-yl)-amine]",4.58,10,4.59
